For 42 compounds, pest or weed control results are on record in patent US6355634B1, “Aromatic compounds” (Bayer Aktiengesellschaft, priority 1990, dated 2002).

Structures are written as SMILES.

Holding throughout (type): in vivo
One experiment relates to Erysiphe graminis. Briefly: Erysiphe graminis (protective action) on wheat seedlings. The conditions noted are these: Blumeria graminis, 168 h, 160 ppm spray, wheat cv. Lita, evaluated 7 days after infection, read-out: action (leaf area covered in Erysiphe graminis as a percentage compared with the infected control). The method, then:
Erysiphe graminis (Protective Action)
30-40 wheat seedlings cv. “Lita” in the 1-leaf stage (distributed to two pots of ø7 cm) are sprayed thoroughly with a spray mixture prepared with a wettable powder of the active substance (with 160 ppm of active ingredient) and then cultured further in the greenhouse. One day after the treatment, the plants are dusted with conidia of Erysiphe graminis. The test is evaluated 7 days after the infection by determining the size of the leaf area covered in Erysiphe graminis as a percentage compared with the infected control.
Untreated, but infected control plants show a level of infection with Erysiphe of 100%.

The test system of a further experiment is Venturia inaequalis. Briefly: Venturia inaequalis (curative action) on apple seedlings. The conditions noted are these: 50 ppm spray, apple cv. Golden Delicious, evaluated 9-10 days after treatment, read-out: action (leaf area covered in Venturia inaequalis as a percentage compared with the infected control). The method, then: Venturia inaequalis (Curative Action)
Two apple seedlings cv. “Golden Delicious” are sprayed with a conidia suspension of Venturia inaequalis and subsequently incubated at 18° C. and under dew-point conditions. After 24 hours, the plants are sprayed thoroughly from all sides with a spray mixture prepared with a wettable powder of the active substance (with 50 ppm of active ingredient). The treated apple seedlings are subsequently cultured further in the greenhouse. 9-10 days after the treatment, the test is evaluated by determining the leaf area covered in Venturia inaequalis as a percentage compared with the infected control.

A further experiment has as its system Plasmopara viticola. Briefly: Plasmopara viticola (protective action) on grapevine seedlings. The conditions noted are these: 144 h, 160 ppm spray, grapevine cv. Riesling x Sylvaner, day 6 after infection, read-out: action (leaf area infected with Plasmopara viticola as a percentage compared with the infected, untreated control). The method, then: Plasmopara viticola (Protective Action)
2 grapevine seedlings cv. Riesling×Sylvaner, each in the 4-5 leaf stage, are sprayed thoroughly from all sides with a spray mixture prepared with a wettable powder of the active substance (with 160 ppm of active ingredient) and subsequently cultured further in a controlled-environment cabinet at 17° C., 70-80% relative atmospheric humidity and with a photoperiod of 16 hours. After 6 days, the test plants are infected by spraying the undersides of the leaves with zoosporangia of Plasmopara viticola, suspended in distilled water (approx. 300,000 sporangia/ml). The grapevine plants are then incubated as follows: 1 day at 22° C. and under dew-point conditions in the dark and subsequently 4 days in the greenhouse. To induce fructification of Plasmopara viticola, the grapevines are transferred to a controlled-environment cabinet with dew-point conditions at 22° C. on day 5 after the infection.
The tests are carried out in each case on day 6 after the infection by determining the leaf area infected with Plasmopara viticola as a percentage compared with the infected, untreated control.

In another experiment the test system is Alternaria brassicae. Briefly: Alternaria brassicae (protective action) on cabbage seedlings. Particulars: 50 ppm spray, cabbage cv. Vorbote, evaluated 2-5 days after infection, read-out: action (leaf area infected with Alternaria brassicae as a percentage compared with the infected, untreated control). The protocol: Alternaria brassicae (Protective Action)
4 cabbage seedlings, cv. “Vorbote”, in the 6-leaf stage, distributed to 2 pots, are sprayed thoroughly with a spray mixture prepared with a wettable powder of the active substance (with 50 ppm of active ingredient) and subsequently cultured further in a controlled-environment cabinet at 19° C. and with 16 hours illumination per day. Two days after the treatment, the plants are infected by spraying with an aqueous conidia suspension (approx. 30,000 conidia/ml). The cabbage plants are then incubated at 24-26° C., under dew-point conditions and with a photoperiod of 16 hours. The test is evaluated 2-5 days after the infection by determining the leaf area infected with Alternaria brassicae as a percentage compared with the infected, untreated control.

The subject of the next experiment is Cercospora arachidicola. Briefly: Action against Cercospora arachidicola on peanut plants (curative action). The conditions noted are these: Mycosphaerella arachidis, 288 h, 160 ppm spray, peanut cv. Tamnut, evaluated 12 days after treatment, read-out: action (leaf area infected with Cercospora arachidicola as a percentage compared with the infected control). The protocol: Action Against Cercospora arachidicola on Peanut Plants (Curative Action)
Two peanut plants cv. “Tamnut” in the 4-leaf stage are sprayed with a conidia suspension of Cercospora arachidicola (approx. 200,000 conidia/ml) and subsequently incubated at 25-26° C. and under dew-point conditions. After two days, the plants are sprayed thoroughly from all sides with a spray mixture prepared with a wettable powder of the active substance (with 160 ppm of active ingredient). The treated plants are subsequently incubated in a controlled-environment cabinet under the following conditions: 25-27° C. and 80% atmospheric humidity during the day, 20° C. and dew-point conditions during the night; the photoperiod in each case is 16 hours. 12 days after the treatment, the test is evaluated by determining the leaf area infected with Cercospora arachidicola as a percentage compared with the infected control.

As for `CO/N=C(\C(=O)OC)c1ccccc1CON=C(c1cccc(Cl)c1)C(F)(F)F` [Compound 141], the pest or weed control at 160 ppm in the experiment with Erysiphe graminis is > 75%.

For the compound `CO/N=C(\C(=O)OC)c1ccccc1CON=C(c1ccc(Oc2ccccc2)cc1)C1CC1` [Compound 149], the pest or weed control at 160 ppm with Erysiphe graminis is > 75%.

As to `CCOc1cc(C(C)=NOCc2ccccc2/C(=N/OC)C(=O)OC)ccc1OC` [Compound 85], the pest or weed control at 50 ppm in the experiment on Venturia inaequalis was > 75%.

For `CO/N=C(\C(=O)OC)c1ccccc1CON=C(C)c1ccc(OC)c([N+](=O)[O-])c1` [Compound 82], in the experiment with Venturia inaequalis, the pest or weed control at 50 ppm is > 75%. The pest or weed control at 160 ppm in the experiment with Plasmopara viticola was > 75%.

Take `CO/N=C(\C(=O)OC)c1ccccc1CON=C(C)c1cccc(OCC#N)c1` [Compound 92]: in the experiment with Alternaria brassicae, the pest or weed control at 50 ppm is > 75%.

Take `CO/N=C(\C(=O)OC)c1ccccc1CON=C(C)Cc1ccc2c(c1)OCO2` [Compound 54]: the pest or weed control at 50 ppm with Alternaria brassicae and with Venturia inaequalis was > 75% throughout.

Consider `CO/N=C(\C(=O)OC)c1ccccc1CON=C(c1ccccc1)C(F)(F)F` [Compound 27], for which the pest or weed control at 160 ppm with Erysiphe graminis is > 75%.

For `CO/N=C(\C(=O)OC)c1ccccc1CON=C(C)c1cccc(C#N)c1` [Compound 70], in the experiment with Erysiphe graminis, the pest or weed control at 160 ppm is > 75%.

`COCc1cc(C(C)=NOCc2ccccc2/C(=N/OC)C(=O)OC)ccc1OC` [Compound 83]: the pest or weed control at 50 ppm in the experiment with Venturia inaequalis was > 75%. For the same compound, in the experiment on Cercospora arachidicola, the pest or weed control at 160 ppm was > 75%.

In the case of `CO/N=C(\C(=O)OC)c1ccccc1CON=C(C)c1ccc(OC)c(CSC)c1` [Compound 49], in the experiment with Venturia inaequalis, the pest or weed control at 50 ppm was > 75%. Also, in the experiment on Cercospora arachidicola, the pest or weed control at 160 ppm was > 75%.

For the compound `CO/N=C(\C(=O)OC)c1ccccc1CON=C(c1cccc(C(F)(F)F)c1)C(F)(F)F` [Compound 39], the pest or weed control at 160 ppm with Erysiphe graminis is > 75%.

`CO/N=C(\C(=O)OC)c1ccccc1CON=C(C)C(C)Oc1ccccc1` (stereo not shown) [Compound 37]: in the experiment on Erysiphe graminis, the pest or weed control at 160 ppm was > 75%.

As to `CO/N=C(\C(=O)OC)c1ccccc1CON=C(C)c1cccc(SC#N)c1` [Compound 71], in the experiment with Cercospora arachidicola, the pest or weed control at 160 ppm was > 75%.

As to `CO/N=C(\C(=O)OC)c1ccccc1CON=C(SC)c1ccccc1` [Compound 124], the pest or weed control at 50 ppm in the experiment with Alternaria brassicae and in the experiment on Venturia inaequalis was > 75% in each case.

As for `CO/N=C(\C(=O)OC)c1ccccc1CON=C(C)c1cccc([N+](=O)[O-])c1` [Compound 26], in the experiment on Alternaria brassicae, the pest or weed control at 50 ppm is > 75%. In the experiment on Cercospora arachidicola, the pest or weed control at 160 ppm was > 75%.

As for `CO/N=C(\C(=O)OC)c1ccccc1CON=C(c1ccc2ccccc2c1)C(F)(F)F` [Compound 143], the pest or weed control at 50 ppm with Alternaria brassicae was > 75%.

On to `CO/N=C(\C(=O)OC)c1ccccc1CON=C(C)c1cc(OC)c(OC)c(OC)c1` [Compound 20], for which the pest or weed control at 50 ppm with Alternaria brassicae and in the experiment on Venturia inaequalis was > 75% each time.

For the compound `CO/N=C(\C(=O)OC)c1ccccc1CON=C(SC)c1cccc(C(F)(F)F)c1` [Compound 126], the pest or weed control at 160 ppm in the experiment on Erysiphe graminis is > 75%.

Take `CO/N=C(\C(=O)OC)c1ccccc1CON=C(C)c1ccc([N+](=O)[O-])cc1` [Compound 25]: in the experiment on Alternaria brassicae, the pest or weed control at 50 ppm is > 75%. For the same compound, the pest or weed control at 160 ppm in the experiment on Cercospora arachidicola and in the experiment with Erysiphe graminis was > 75% throughout.

Turning to `CO/N=C(\C(=O)OC)c1ccccc1CON=C(C)c1ccc(OC(F)(F)C(F)(F)F)cc1` [Compound 106], in the experiment with Venturia inaequalis, the pest or weed control at 50 ppm is > 75%.

For `CO/N=C(\C(=O)OC)c1ccccc1CON=C(C)c1cccs1` [Compound 14], the pest or weed control at 50 ppm in the experiment on Alternaria brassicae and with Venturia inaequalis was > 75% each time. Besides, the pest or weed control at 160 ppm with Cercospora arachidicola was > 75%.

For the compound `CO/N=C(\C(=O)OC)c1ccccc1CON=C(C)C(C)=CC=C(C)CCC=C(C)C` [Compound 23], the pest or weed control at 50 ppm with Alternaria brassicae is > 75%. The pest or weed control at 160 ppm in the experiment on Erysiphe graminis was > 75%.

Regarding `CO/N=C(\C(=O)OC)c1ccccc1CON=C(c1ccc(F)cc1)C1CC1` [Compound 89], in the experiment with Erysiphe graminis, the pest or weed control at 160 ppm is > 75%.

Regarding `CO/N=C(\C(=O)OC)c1ccccc1CON=C(c1cccc(Cl)c1)C1CC1` [Compound 145], the pest or weed control at 160 ppm in the experiment with Cercospora arachidicola is > 75%.

As to `CCCC(=NOCc1ccccc1/C(=N/OC)C(=O)OC)c1ccccc1` [Compound 18], the pest or weed control at 160 ppm with Erysiphe graminis is > 75%.

Regarding `CO/N=C(\C(=O)OC)c1ccccc1CON=C(C)c1ccccc1` [Compound 134], the pest or weed control at 50 ppm in the experiment with Venturia inaequalis is > 75%.

As for `CO/N=C(\C(=O)OC)c1ccccc1CON=C(C)C(=O)c1cccc([N+](=O)[O-])c1` [Compound 130], the pest or weed control at 50 ppm in the experiment on Alternaria brassicae is > 75%. Besides, the pest or weed control at 160 ppm in the experiment with Cercospora arachidicola was > 75%.

Consider `CO/N=C(\C(=O)OC)c1ccccc1CON=C(c1cccc(Br)c1)C1CC1` [Compound 147], for which the pest or weed control at 50 ppm in the experiment with Venturia inaequalis was > 75%. Moreover, the pest or weed control at 160 ppm in the experiment on Plasmopara viticola was > 75%.

As for `CO/N=C(\C(=O)OC)c1ccccc1CON=C(C)c1cc(Cl)cc(Cl)c1` [Compound 136], the pest or weed control at 50 ppm with Alternaria brassicae was > 75%.

`CO/N=C(\C(=O)OC)c1ccccc1CON=C(OC)c1ccc(Cl)cc1` [Compound 127]: in the experiment with Erysiphe graminis, the pest or weed control at 160 ppm was > 75%.

With `CO/N=C(\C(=O)OC)c1ccccc1CON=C(C)c1ccc2cc(OC)ccc2c1` [Compound 119], in the experiment on Erysiphe graminis, the pest or weed control at 160 ppm is > 75%.

On to `CO/N=C(\C(=O)OC)c1ccccc1CON=C(C)c1ccc(OC)cc1` [Compound 19], for which the pest or weed control at 50 ppm with Venturia inaequalis was > 75%. Moreover, the pest or weed control at 160 ppm with Cercospora arachidicola is > 75%.

In the case of `CO/N=C(\C(=O)OC)c1ccccc1CON=C(C)c1cccc(F)c1` [Compound 40], the pest or weed control at 160 ppm in the experiment with Cercospora arachidicola and with Erysiphe graminis was > 75% in each case.

Turning to `CO/N=C(\C(=O)OC)c1ccccc1CON=C(C)c1ccc(Cl)c(Cl)c1` [Compound 13], the pest or weed control at 50 ppm in the experiment with Alternaria brassicae and in the experiment with Venturia inaequalis was > 75% throughout. For the same compound, the pest or weed control at 160 ppm in the experiment with Cercospora arachidicola and in the experiment with Erysiphe graminis was > 75% in each case.

Turning to `CO/N=C(\C(=O)OC)c1ccccc1CON=CC(=O)c1cccs1` [Compound 105], the pest or weed control at 50 ppm with Alternaria brassicae and in the experiment with Venturia inaequalis was > 75% each time. The pest or weed control at 160 ppm in the experiment on Erysiphe graminis was > 75%.

For `CO/N=C(\C(=O)OC)c1ccccc1CON=C(C)c1cc(C)ccc1F` [Compound 137], in the experiment on Erysiphe graminis, the pest or weed control at 160 ppm is > 75%.

Regarding `CO/N=C(\C(=O)OC)c1ccccc1CON=C(SC)c1ccc(Cl)cc1` [Compound 125], the pest or weed control at 160 ppm with Plasmopara viticola was > 75%.

As to `C=CCOc1cccc(C(C)=NOCc2ccccc2/C(=N/OC)C(=O)OC)c1` [Compound 66], the pest or weed control at 50 ppm with Venturia inaequalis is > 75%. Besides, the pest or weed control at 160 ppm with Cercospora arachidicola is > 75%.

Take `C#CCOc1cccc(C(C)=NOCc2ccccc2/C(=N/OC)C(=O)OC)c1` [Compound 67]: the pest or weed control at 50 ppm in the experiment on Alternaria brassicae was > 75%.

On to `CO/N=C(\C(=O)OC)c1ccccc1CON=C(C)c1cccc(OCC2CC2)c1` [Compound 68], for which the pest or weed control at 160 ppm in the experiment on Cercospora arachidicola was > 75%.

As for `CO/N=C(\C(=O)OC)c1ccccc1CON=C(c1ccc(Cl)cc1)C(F)(F)F` [Compound 142], in the experiment with Venturia inaequalis, the pest or weed control at 50 ppm was > 75%.

In the case of `CO/N=C(\C(=O)OC)c1ccccc1CON=C(C)C(=O)c1ccc2c(c1)OCO2` [Compound 64], in the experiment with Venturia inaequalis, the pest or weed control at 50 ppm is > 75%.
